Results taken from a melting point compilation (Tetko et al.; mined from patent text by program, amines drawn as free bases though some values may be those of a salt).

Compound	melting point
O=C(Nc1ccc(-n2nc(C(F)(F)F)cc2C(F)(F)F)cc1)c1nc(Cl)ccc1Cl	118 to 119 °C
Nc1ccc(C=CC(=O)N2CCc3c([nH]c4ccccc34)C2c2ccc3c(c2)OCO3)cc1 (stereo not given)	262 to 265 °C
CC1N=C(N2CCN(C)CC2)NN=C1c1ccccc1 (stereo not given)	124 to 125 °C
CCCCc1oc2ccccc2c1C(=O)NCc1ccc2c(Br)c(O)ccc2c1	192 to 193 °C
CC(=NNC(=S)N1CC2CCC(CC2)C1)c1ccccn1	156 °C
COc1cc(C=Cc2ccccc2)cc(OC)c1	56.4 °C
CCCCCCCC(=O)NCc1cccc(-c2ccc(CCC(=O)O)cc2)c1	124 to 125 °C
Cc1cc(C2=c3ccc(=C4C(=O)c5ccccc5C4=O)cc3OC2=O)cc(C)c1N	> 250 °C
CNC1CCCN(c2ccc3c(NC(=O)CC4CCCCC4)c(Cl)ccc3n2)C1 (stereo not given)	158 to 159 °C
O=C(Nc1cccc2ccccc12)N1C(=O)C2(CCCCC2)NC12CCCCC2	157 to 160 °C
COc1ccc2cccnc2c1[N+](=O)[O-]	178 °C
CNN1c2cc(Cl)cc(Cl)c2[C@@H](C(=O)Nc2ccccc2)C[C@@H]1C(=O)O (relative stereo)	139 to 140 °C
O=C(NS(=O)(=O)N1CCCCC1)C1=NN(c2ccc(Cl)cc2)C(c2ccccc2)C1 (stereo not given)	176 to 179 °C
N#Cc1c[nH]cc1-c1ccc(Cl)cc1	147 to 148 °C
Clc1ccc(C2(c3ccc4noc(-c5ccccc5)c4c3)OCCO2)cc1	143 °C
CC1CCOCC1C(C#N)=NO (stereo not given)	94 to 96 °C
O=C(O)CCc1ccc(OCCN2CCCC2=O)cc1Oc1ncc(C(F)(F)F)cc1Cl	145 to 146 °C
O=C1NCC[C@@H](c2ccc(Oc3ccccc3)cc2)[C@@H]1c1ccccc1 (relative stereo)	157 to 159 °C
O=C1OC(CCI)C(O)=C1O (stereo not given)	150 to 151 °C
CC(C)CCCC(C)C1CC=C2C3=C(CCC21C)C1(C)CC=CCC1CC3 (stereo not given)	105 °C
CCc1oc2ccc(Cl)cc2c1C(=O)c1cc(Br)c(O)c(Br)c1	126 to 128 °C
O=C(C=Cc1cccc(NC(=O)C=Cc2ccccc2)c1)NO	178 °C
COC(=O)CN(CC(=O)OC)c1cc(OCCCCCCCCCCCCOc2ccccc2)cc(OCCCOc2ccc(S(C)=O)cc2)c1 (stereo not given)	47 to 49 °C
N#Cc1nn(-c2c(Cl)cc(C(F)(F)F)cc2Cl)c(N)c1-c1ccccc1C(F)(F)F	161 °C
O=S1(=O)N=CN(C2CC2)c2cc(Br)ccc21	268 to 271 °C

Further lines, results first:

melting point	Compound
58 to 59 °C	CCOC(=O)C(C(=O)Cc1cc(OC(C)C)c(Cl)cc1F)=C(N)C(F)(F)F
129 to 133 °C	CCOC(=O)C1=C(OCC)C(OCC)=NS1(=O)=O
137 to 138 °C	CCN(CC)c1nc(N)nc(-c2cc(Cl)ccc2Cl)n1
199 to 202 °C	O=C(O)Cc1c(-c2ccco2)nn(-c2ccccc2)c1-c1ccco1
160 to 163 °C	COc1ccccc1N1CCN(CC(C(=O)O)c2ccccc2)CC1 (stereo not given)
129 to 130 °C	CCOC(=O)c1cc2c(O)c(C(=O)OCC)n(C)c2nc1C(=O)OCC
155 °C	COC(=O)NNC(=O)c1ccc([N+](=O)[O-])o1
110 to 112 °C	CCCC1(C)CC(=O)NC(=O)C1
168 to 170 °C	COc1cc2c(cc1Nc1ncc(Cl)c(N[C@@H]3[C@H](C(N)=O)[C@H]4C=C[C@@H]3C4)n1)CCOC(=O)N2C
302 to 304 °C	CC(C)c1n[nH]c2c(O)ncnc12
120 to 122 °C	COC(=O)c1cn(-c2ccc(OC)c(OC3CC4CCC3C4)c2)c2ccccc12 (stereo not given)
163 to 165 °C	CC(=O)c1c(CO)[nH]c(-c2ccncc2)c1C
262 to 264 °C	Cc1ccn2cc(CCc3ccc4nc(N)oc4c3)nc2c1
160 to 163 °C	CCCn1cc(C(N)=O)c(N)n1
226 to 227 °C	CCCOc1ccc(NC=C(C(=O)OCC)C(=O)OCC)cc1C1=NC(=O)C2=NN=NC2=N1
